Laboratory results from patent US20200172529A1, “Chemical Compound, Pharmaceutical Composition Thereof, and Use and Application Thereof” (Beijing Hanmi Pharm. Co., Ltd., priority 2017, published 2020).

Tests used:
Assay type in all cases: biochemical
[1] = biological target: SYK kinase (Homo sapiens, UniProt P43405); test: Inhibition assay of SYK kinase activity (ADP-Glo Kinase Assay)
From the text: Inhibition assay of SYK kinase activity: the method in ADP-Glo™ Kinase Assay (Promega, V9102) was used to determine the inhibitory activity of the test compounds against SYK kinase.

[2] = biological target: T1, TYK2 kinase (Homo sapiens, UniProt P29597); test: Inhibition assay of TYK2 kinase activity (ADP-Glo Kinase Assay)
T1 construct: purchased Life Technologies PR8440C
In short: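 Enzyme at 0.8 ng/mL (2-fold final) in 40 mM Tris-HCl pH 7.5, 20 mM MgCl2, 0.1 mg/mL BSA, 1 mM DTT, preincubated 10 min with compound (6 points, 10-fold dilutions from 10 μM). ATP plus polyE4Y1 then added for 60 min at room temperature. ADP-Glo luminescence read and IC50 derived.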

[3] = biological target: JAK1 kinase (Homo sapiens, UniProt P23458); test: Inhibition assay of JAK1 kinase activity (ADP-Glo Kinase Assay)
From the text: Inhibition assay of JAK1 kinase activity: the method in ADP-Glo™ Kinase Assay (Promega, V9102) was used to determine the inhibitory activity of the test compounds against JAK1 kinase.

[4] = biological target: T2, JAK3 kinase (Homo sapiens, UniProt P52333); test: Inhibition assay of JAK3 kinase activity (ADP-Glo Kinase Assay)
T2 sequence (P52333 1-1124): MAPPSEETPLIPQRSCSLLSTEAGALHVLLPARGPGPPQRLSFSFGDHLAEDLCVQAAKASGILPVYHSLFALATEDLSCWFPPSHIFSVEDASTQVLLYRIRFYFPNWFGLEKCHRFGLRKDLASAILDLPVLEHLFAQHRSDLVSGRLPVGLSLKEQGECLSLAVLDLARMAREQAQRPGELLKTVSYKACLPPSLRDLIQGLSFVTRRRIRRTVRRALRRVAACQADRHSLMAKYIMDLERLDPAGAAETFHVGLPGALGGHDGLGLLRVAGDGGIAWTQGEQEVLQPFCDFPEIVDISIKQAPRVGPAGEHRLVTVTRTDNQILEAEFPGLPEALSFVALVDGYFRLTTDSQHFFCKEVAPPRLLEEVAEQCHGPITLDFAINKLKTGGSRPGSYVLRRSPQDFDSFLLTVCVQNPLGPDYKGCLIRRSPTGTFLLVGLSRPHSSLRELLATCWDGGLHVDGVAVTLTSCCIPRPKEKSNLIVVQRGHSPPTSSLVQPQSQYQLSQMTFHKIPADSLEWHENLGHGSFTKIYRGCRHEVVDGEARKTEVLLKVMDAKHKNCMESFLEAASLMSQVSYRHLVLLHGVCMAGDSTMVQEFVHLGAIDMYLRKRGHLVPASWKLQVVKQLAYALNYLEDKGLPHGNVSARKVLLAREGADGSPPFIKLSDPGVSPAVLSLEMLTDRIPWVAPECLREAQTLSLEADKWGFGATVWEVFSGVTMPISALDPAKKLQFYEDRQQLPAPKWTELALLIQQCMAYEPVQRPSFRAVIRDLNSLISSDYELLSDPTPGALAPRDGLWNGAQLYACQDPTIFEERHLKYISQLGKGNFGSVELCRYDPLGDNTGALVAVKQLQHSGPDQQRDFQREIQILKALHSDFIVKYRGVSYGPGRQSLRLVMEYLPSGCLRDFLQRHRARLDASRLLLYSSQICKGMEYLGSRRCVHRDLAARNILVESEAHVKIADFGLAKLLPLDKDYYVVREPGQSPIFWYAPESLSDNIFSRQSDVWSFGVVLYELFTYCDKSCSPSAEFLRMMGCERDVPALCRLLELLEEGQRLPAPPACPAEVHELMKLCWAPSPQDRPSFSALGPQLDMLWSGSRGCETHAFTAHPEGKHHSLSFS
From the text: Inhibition assay of JAK3 kinase activity: the method in ADP-Glo™ Kinase Assay (Promega, V9102) was used to determine the inhibitory activity of the test compounds against JAK3 kinase.

[5] = biological target: JAK2 kinase (Homo sapiens, UniProt O60674); test: Inhibition assay of JAK2 kinase activity (ADP-Glo Kinase Assay)
From the text: Inhibition assay of JAK2 kinase activity: the method in ADP-Glo™ Kinase Assay (Promega, V9102) was used to determine the inhibitory activity of the test compounds against JAK2 kinase.

Sequence of JAK1 kinase (P23458 whole entry): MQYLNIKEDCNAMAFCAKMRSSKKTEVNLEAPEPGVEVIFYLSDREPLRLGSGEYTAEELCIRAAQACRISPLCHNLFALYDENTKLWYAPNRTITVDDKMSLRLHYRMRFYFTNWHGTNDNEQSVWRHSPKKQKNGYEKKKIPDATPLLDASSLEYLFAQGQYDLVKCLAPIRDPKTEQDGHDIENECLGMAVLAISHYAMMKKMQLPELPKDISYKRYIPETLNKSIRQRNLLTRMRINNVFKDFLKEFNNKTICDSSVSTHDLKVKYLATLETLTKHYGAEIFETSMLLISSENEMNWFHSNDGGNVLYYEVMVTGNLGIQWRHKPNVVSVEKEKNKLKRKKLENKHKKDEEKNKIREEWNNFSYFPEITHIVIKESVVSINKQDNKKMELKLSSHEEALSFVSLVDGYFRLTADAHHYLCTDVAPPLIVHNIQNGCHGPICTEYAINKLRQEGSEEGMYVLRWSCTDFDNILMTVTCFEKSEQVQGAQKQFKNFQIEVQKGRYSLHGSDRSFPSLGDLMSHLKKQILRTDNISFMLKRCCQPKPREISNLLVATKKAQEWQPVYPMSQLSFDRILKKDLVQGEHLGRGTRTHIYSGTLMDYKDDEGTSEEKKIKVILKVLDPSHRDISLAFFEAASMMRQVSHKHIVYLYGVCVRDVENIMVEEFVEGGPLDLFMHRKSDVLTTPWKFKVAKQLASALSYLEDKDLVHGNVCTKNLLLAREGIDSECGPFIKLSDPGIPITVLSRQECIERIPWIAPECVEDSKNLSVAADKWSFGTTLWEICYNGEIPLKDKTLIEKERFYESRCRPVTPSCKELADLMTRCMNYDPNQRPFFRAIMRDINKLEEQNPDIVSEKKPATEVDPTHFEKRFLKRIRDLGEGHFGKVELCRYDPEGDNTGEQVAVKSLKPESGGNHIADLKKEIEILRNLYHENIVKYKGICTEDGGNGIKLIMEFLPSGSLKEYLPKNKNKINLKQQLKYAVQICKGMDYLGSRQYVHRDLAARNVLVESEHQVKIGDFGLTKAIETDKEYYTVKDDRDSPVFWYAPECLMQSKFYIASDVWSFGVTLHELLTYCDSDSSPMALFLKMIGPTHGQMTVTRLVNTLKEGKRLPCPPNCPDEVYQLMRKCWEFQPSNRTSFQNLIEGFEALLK
T1 sequence (P29597 whole entry): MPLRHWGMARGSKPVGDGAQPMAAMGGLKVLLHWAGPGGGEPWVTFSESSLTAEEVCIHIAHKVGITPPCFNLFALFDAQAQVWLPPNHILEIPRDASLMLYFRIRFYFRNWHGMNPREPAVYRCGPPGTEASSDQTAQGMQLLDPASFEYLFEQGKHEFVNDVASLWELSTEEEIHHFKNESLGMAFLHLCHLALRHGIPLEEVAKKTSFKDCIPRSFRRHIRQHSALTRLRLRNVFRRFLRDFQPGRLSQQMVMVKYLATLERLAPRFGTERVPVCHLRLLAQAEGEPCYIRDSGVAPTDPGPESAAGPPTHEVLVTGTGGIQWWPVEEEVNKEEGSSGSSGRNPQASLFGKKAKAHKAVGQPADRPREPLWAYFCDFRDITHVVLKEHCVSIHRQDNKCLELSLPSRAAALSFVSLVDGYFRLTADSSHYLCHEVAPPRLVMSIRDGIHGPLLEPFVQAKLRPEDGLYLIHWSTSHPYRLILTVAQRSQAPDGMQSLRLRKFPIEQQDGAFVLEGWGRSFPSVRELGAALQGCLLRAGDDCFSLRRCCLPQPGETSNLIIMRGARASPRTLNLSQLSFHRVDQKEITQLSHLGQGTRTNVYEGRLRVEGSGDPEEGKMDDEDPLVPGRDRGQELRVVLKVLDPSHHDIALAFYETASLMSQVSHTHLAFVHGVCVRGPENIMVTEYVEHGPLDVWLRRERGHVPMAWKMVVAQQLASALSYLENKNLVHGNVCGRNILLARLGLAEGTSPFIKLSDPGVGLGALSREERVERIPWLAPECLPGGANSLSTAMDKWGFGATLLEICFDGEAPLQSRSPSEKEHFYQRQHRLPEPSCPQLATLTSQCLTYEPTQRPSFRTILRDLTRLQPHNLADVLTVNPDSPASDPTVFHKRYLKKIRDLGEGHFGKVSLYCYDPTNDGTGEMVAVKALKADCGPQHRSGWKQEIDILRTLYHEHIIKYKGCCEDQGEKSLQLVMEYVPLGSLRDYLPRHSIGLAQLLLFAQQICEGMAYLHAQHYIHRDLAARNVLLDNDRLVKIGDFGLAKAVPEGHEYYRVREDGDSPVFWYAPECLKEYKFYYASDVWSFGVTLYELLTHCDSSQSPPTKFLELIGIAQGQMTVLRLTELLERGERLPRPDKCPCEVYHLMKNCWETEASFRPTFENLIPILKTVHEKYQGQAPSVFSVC
Sequence of JAK2 kinase (O60674 whole entry): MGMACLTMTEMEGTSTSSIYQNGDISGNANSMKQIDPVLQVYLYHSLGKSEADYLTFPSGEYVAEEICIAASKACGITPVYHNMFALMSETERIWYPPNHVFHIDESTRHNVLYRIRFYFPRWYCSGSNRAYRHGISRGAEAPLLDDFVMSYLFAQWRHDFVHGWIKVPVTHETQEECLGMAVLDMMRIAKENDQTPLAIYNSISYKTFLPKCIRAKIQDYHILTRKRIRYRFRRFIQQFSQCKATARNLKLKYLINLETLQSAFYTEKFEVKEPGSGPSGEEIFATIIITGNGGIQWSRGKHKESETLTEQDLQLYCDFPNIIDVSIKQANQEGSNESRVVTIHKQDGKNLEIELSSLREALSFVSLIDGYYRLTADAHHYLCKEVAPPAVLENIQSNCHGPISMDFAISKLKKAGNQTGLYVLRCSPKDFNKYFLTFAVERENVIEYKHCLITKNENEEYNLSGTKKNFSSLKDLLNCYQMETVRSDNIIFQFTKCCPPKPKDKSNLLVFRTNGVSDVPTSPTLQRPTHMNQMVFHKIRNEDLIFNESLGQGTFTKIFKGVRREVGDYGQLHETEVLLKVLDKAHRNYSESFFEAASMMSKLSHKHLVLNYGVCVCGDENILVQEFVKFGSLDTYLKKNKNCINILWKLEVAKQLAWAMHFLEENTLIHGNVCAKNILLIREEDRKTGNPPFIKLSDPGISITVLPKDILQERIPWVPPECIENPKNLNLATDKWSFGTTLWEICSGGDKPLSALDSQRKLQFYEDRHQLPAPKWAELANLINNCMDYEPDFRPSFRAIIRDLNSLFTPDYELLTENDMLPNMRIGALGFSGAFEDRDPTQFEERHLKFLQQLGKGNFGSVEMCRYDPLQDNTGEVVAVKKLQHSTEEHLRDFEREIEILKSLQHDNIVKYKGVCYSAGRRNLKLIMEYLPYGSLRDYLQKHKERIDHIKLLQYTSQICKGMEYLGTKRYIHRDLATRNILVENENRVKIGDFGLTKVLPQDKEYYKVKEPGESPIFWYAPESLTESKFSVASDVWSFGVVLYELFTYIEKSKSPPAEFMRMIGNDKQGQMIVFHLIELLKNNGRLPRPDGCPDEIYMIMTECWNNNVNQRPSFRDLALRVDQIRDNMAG

NC(=O)c1cnc(Nc2ccc3c(c2)NCC(O)CO3)nc1NC1CCC1 (centres unmarked) [Example 1, 4-(cyclobutylamino)-2-((3-hydroxy-2,3,4,5-tetrahydro-benzo[b][1,4]oxazepin-7-yl)amino)pyrimidin-5-carboxamide]
IC50 [1]: 10 to 100 nM | IC50 [2]: < 10 nM | IC50 [3]: < 10 nM

COC1CNc2cc(Nc3ncc(C(N)=O)c(NC4CC4)n3)ccc2OC1 (centres unmarked) [Example 24, 4-(cyclopropylamino)-2-((3-methoxy-2,3,4,5-tetrahydro-benzo[b][1,4]oxazepin-7-yl)amino)pyrimidin-5-carboxamide]
IC50 [1]: 10 to 100 nM | IC50 [2]: < 10 nM | IC50 [3]: 10 to 100 nM | IC50 [4]: 10 to 100 nM | IC50 [5]: 10 to 100 nM

NC(=O)c1cnc(Nc2ccc3c(c2)NC[C@@H](O)CO3)nc1NC1CC1 [Example 25, (R)-4-(cyclopropylamino)-2-((3-hydroxy-2,3,4,5-tetrahydro-benzo[b][1,4]oxazepin-7-yl)amino)pyrimidin-5-carboxamide]
IC50 [1]: 10 to 100 nM | IC50 [2]: < 10 nM | IC50 [3]: 10 to 100 nM | IC50 [4]: < 10 nM | IC50 [5]: < 10 nM

NC(=O)c1cnc(Nc2ccc3c(c2)NC[C@H](O)CO3)nc1NCC1CC1 [Example 44, 4-((cyclopropylmethyl)amino)-2-(((S)-2,3,4,5-tetrahydro-3-hydroxybenzo[b][1,4]oxazepin-7-yl)amino)pyrimidin-5-carboxamide]
IC50 [1]: 10 to 100 nM | IC50 [2]: < 10 nM | IC50 [3]: < 10 nM | IC50 [4]: < 10 nM | IC50 [5]: < 10 nM

NC(=O)c1cnc(Nc2ccc3c(c2)NC[C@H](O)CO3)nc1NC1CC1F (stereo partly drawn) [Example 57, 4-((2-fluorocyclopropyl)amino)-2-(((S)-2,3,4,5-tetrahydro-3-hydroxybenzo[b][1,4]oxazepin-7-yl)amino)pyrimidin-5-carboxamide]
IC50 [1]: 10 to 100 nM | IC50 [2]: < 10 nM | IC50 [3]: < 10 nM | IC50 [4]: 10 to 100 nM | IC50 [5]: 10 to 100 nM

C=CCNc1nc(Nc2ccc3c(c2)NC[C@H](O)CO3)ncc1C(N)=O [Example 60, 4-(allylamino)-2-(((S)-2,3,4,5-tetrahydro-3-hydroxybenzo[b][1,4]oxazepin-7-yl)amino)pyrimidin-5-carboxamide]
IC50 [1]: 10 to 100 nM | IC50 [2]: < 10 nM | IC50 [3]: < 10 nM | IC50 [4]: 10 to 100 nM | IC50 [5]: 10 to 100 nM

C#CCCNc1nc(Nc2ccc3c(c2)NC[C@H](O)CO3)ncc1C(N)=O [Example 66, 4-(but-3-yn-1-ylamino)-2-(((S)-2,3,4,5-tetrahydro-3-hydroxybenzo[b][1,4]oxazepin-7-yl)amino)pyrimidin-5-carboxamide]
IC50 [1]: 10 to 100 nM | IC50 [2]: < 10 nM | IC50 [3]: < 10 nM | IC50 [4]: 10 to 100 nM | IC50 [5]: 10 to 100 nM

CC1(Nc2nc(Nc3ccc4c(c3)NC[C@H](O)CO4)ncc2C(N)=O)CC1 [Example 68, 4-((1-methylcyclopropyl)amino)-2-(((S)-2,3,4,5-tetrahydro-3-hydroxybenzo[b][1,4]oxazepin-7-yl)amino)pyrimidin-5-carboxamide]
IC50 [1]: 10 to 100 nM | IC50 [2]: < 10 nM | IC50 [3]: < 10 nM | IC50 [4]: 10 to 100 nM | IC50 [5]: < 10 nM

CCCNc1nc(Nc2ccc3c(c2)NC[C@H](O)CO3)ncc1C(N)=O [Example 69, 4-(propylamino)-2-(((S)-2,3,4,5-tetrahydro-3-hydroxybenzo[b][1,4]oxazepin-7-yl)amino)pyrimidin-5-carboxamide]
IC50 [1]: 10 to 100 nM | IC50 [2]: < 10 nM | IC50 [3]: < 10 nM | IC50 [4]: 10 to 100 nM | IC50 [5]: 10 to 100 nM

C#CCCCNc1nc(Nc2ccc3c(c2)NC[C@H](O)CO3)ncc1C(N)=O [Example 72, 4-(pent-4-yn-1-ylamino)-2-(((S)-2,3,4,5-tetrahydro-3-hydroxybenzo[b][1,4]oxazepin-7-yl)amino)pyrimidin-5-carboxamide]
IC50 [1]: 10 to 100 nM | IC50 [2]: < 10 nM | IC50 [3]: < 10 nM | IC50 [4]: < 10 nM | IC50 [5]: < 10 nM

CCCCCNc1nc(Nc2ccc3c(c2)NC[C@H](O)CO3)ncc1C(N)=O [Example 75, 4-(pentylamino)-2-(((S)-2,3,4,5-tetrahydro-3-hydroxybenzo[b][1,4]oxazepin-7-yl)amino)pyrimidin-5-carboxamide]
IC50 [2]: < 10 nM | IC50 [3]: < 10 nM | IC50 [4]: < 10 nM | IC50 [5]: < 10 nM

C=CCCNc1nc(Nc2ccc3c(c2)NC[C@H](O)CO3)ncc1C(N)=O [Example 76, 4-(but-3-enylamino)-2-(((S)-2,3,4,5-tetrahydro-3-hydroxybenzo[b][1,4]oxazepin-7-yl)amino)pyrimidin-5-carboxamide]
IC50 [1]: 10 to 100 nM | IC50 [2]: 10 to 100 nM | IC50 [3]: < 10 nM | IC50 [4]: < 10 nM | IC50 [5]: < 10 nM

CCCO[C@H]1CNc2cc(Nc3ncc(C(N)=O)c(NC4CC4)n3)ccc2OC1 [Example 82, 4-(cyclopropylamino)-2-(((S)-2,3,4,5-tetrahydro-3-propoxybenzo[b][1,4]oxazepin-7-yl)amino)pyrimidin-5-carboxamide]
IC50 [2]: < 10 nM | IC50 [3]: < 10 nM | IC50 [4]: 10 to 100 nM | IC50 [5]: 10 to 100 nM

CO[C@H]1CNc2cc(Nc3ncc(C(N)=O)c(NC4C5CC6CC4CC(O)(C6)C5)n3)ccc2OC1 (stereo partly drawn) [Example 90, 4-((5-hydroxyadamantan-2-yl)amino)-2-(((S)-2,3,4,5-tetrahydro-3-methoxybenzo[b][1,4]oxazepin-7-yl)amino)pyrimidin-5-carboxamide]
IC50 [1]: 10 to 100 nM | IC50 [2]: < 10 nM | IC50 [4]: < 10 nM | IC50 [5]: < 10 nM

CO[C@H]1CNc2cc(Nc3ncc(C(N)=O)c(NC4C5CC6CC4CC(OC)(C6)C5)n3)ccc2OC1 (stereo partly drawn) [Example 93, 4-((5-methoxyadamantan-2-yl)amino)-2-(((S)-2,3,4,5-tetrahydro-3-methoxybenzo[b][1,4]oxazepin-7-yl)amino)pyrimidin-5-carboxamide]
IC50 [2]: < 10 nM | IC50 [3]: < 10 nM | IC50 [4]: < 10 nM | IC50 [5]: < 10 nM

NC(=O)c1cnc(Nc2ccc3c(c2)NC[C@H](OCC2CCCCO2)CO3)nc1NC1CC1 (stereo partly drawn) [Example 99, 4-(cyclopropylamino)-2-(((S)-2,3,4,5-tetrahydro-3-(tetrahydro-2H-2-pyranylmethoxy)benzo[b][1,4]oxazepin-7-yl)amino)pyrimidin-5-carboxamide]
IC50 [1]: 10 to 100 nM | IC50 [2]: < 10 nM | IC50 [3]: < 10 nM

COCCCCO[C@H]1CNc2cc(Nc3ncc(C(N)=O)c(NC4CC4)n3)ccc2OC1 [Example 100, 4-(cyclopropylamino)-2-(((S)-2,3,4,5-tetrahydro-3-(4-methoxybutoxy)benzo[b][1,4]oxazepin-7-yl)amino)pyrimidin-5-carboxamide]
IC50 [1]: 10 to 100 nM | IC50 [2]: < 10 nM | IC50 [3]: < 10 nM

NC(=O)c1cnc(Nc2ccc3c(c2)NC[C@H](OCC2CCCOC2)CO3)nc1NC1CC1 (stereo partly drawn) [Example 102, 4-(cyclopropylamino)-2-(((S)-2,3,4,5-tetrahydro-3-((tetrahydropyran-3-yl)methoxy)benzo[b][1,4]oxazepin-7-yl)amino)pyrimidin-5-carboxamide]
IC50 [2]: < 10 nM | IC50 [3]: < 10 nM | IC50 [4]: 10 to 100 nM | IC50 [5]: 10 to 100 nM

CC(C)(C)OCCO[C@H]1CNc2cc(Nc3ncc(C(N)=O)c(NC4CC4)n3)ccc2OC1 [Example 103, 4-(cyclopropylamino)-2-(((S)-2,3,4,5-tetrahydro-3-(2-(tert-butoxy)ethoxy)benzo[b][1,4]oxazepin-7-yl)amino)pyrimidin-5-carboxamide]
IC50 [2]: < 10 nM | IC50 [3]: < 10 nM | IC50 [4]: 10 to 100 nM | IC50 [5]: 10 to 100 nM
